Measured values taken from patent US20090012085A1, “DOSAGE FORMS AND METHODS OF TREATMENT USING A TYROSINE KINASE INHIBITOR” (priority 2005, published 2009).

Tested on: solid tumor malignancies
Assay: Efficacy study in humans with solid tumors (RECIST, CT scan or MRI)
Format: in vivo, human
Parameters: key to Response time and response: PR means partial response; CR means complete response
Source text: Complete Response (CR), as used herein, unless otherwise indicated, refers to disappearance of all measurable and nonmeasurable lesions and no appearance of new lesions in a patient under the treatment of compound of formula 1, its pharmaceutically acceptable salt or solvate thereof, or a mixture thereof.
Partial Response (PR), as used herein, unless other wise indicated, refers to at least a 30% decrease in the sum of the LDs of target lesions (taking as reference the baseline sum), without progression of nontarget lesions and no appearance of new lesions in a patient under treatment of compound of formula 1, its pharmaceutically acceptable salt or solvate thereof, or a mixture thereof.
50 patients were treated under a dose-escalating multicenter study of patients with solid tumor malignancies not amenable to conventional therapies. The types of tumor malignancies that the patients had included colorectal carcinoma, renal cell carcinoma, esophageal carcinoma, thymus carcinoma, mastocytosis, lung cancer and multiple endocrine neoplasia type II and other malignances. Patients were treated in cohorts of 6 with escalating QD (once per day) doses of a maleate salt of a compound of formula 1. Each study cycle was a five week cycle consisting of 4 weeks of treatment followed by 1 week of rest (4/1 schedule) or a five week cycle of continuous dosing without any rest period.
Of these 50 patients, all patients were evaluated for efficacy determinations. Tumor size was measured at the end of each cycle of treatment. […] The partial response of four of these seven patients was confirmed by a repeat assessment four weeks later. The partial response of the other three patients has not been confirmed. The tumor shrinkage was determined by either CT scan or MRI as per RECIST criteria.

Cc1[nH]c(/C=C2\C(=O)Nc3ccc(F)cc32)c(C)c1C(=O)NC[C@H](O)CN1CCOCC1 [compound 1, 5-[(Z)-(5-fluoro-2-oxo-1,2-dihydro-3H-indol-3-ylidene)methyl]-N-[(2S)-2-hydroxy-3-morpholin-4-ylpropyl]-2,4-dimethyl-1H-pyrrole-3-carboxamide]
Response time and response (Patient 1, Renal cell carcinoma, 50 mg 4/1 QD, after 2nd cycle): PR | Response time and response (Patient 1, Renal cell carcinoma, 50 mg 4/1 QD, at cycle 5): CR | Response time and response (Patient 2, Biliary cell Carcinoma, 100 mg 4/1 QD, at cycle 5, confirmed): PR at cycle 5, confirmed. | Response time and response (Patient 3, Thyroid carcinoma, 150 mg QD 4/1, after 1st cycle, confirmed): PR after 1st cycle, | Response time and response (Patient 4, Colon adenocarcinoma, 150 mg QD 4/1, after 1st cycle, not confirmed): PR after 1st cycle, not | Response time and response (Patient 5, Renal cell carcinoma, 250 mg QD 4/1, after 1st cycle, confirmed): PR after 1st cycle, | Response time and response (Patient 6, Alveolar soft tissue carcinoma, cycle 1 250 mg QD 4/1, cycle 2 and beyond 200 mg QD 4/1, not confirmed): PR, not confirmed | Response time and response (Patient 7, Renal cell carcinoma, 150 mg continuous, after 1st cycle, not confirmed): PR after 1st cycle, not | Response time and response (Patient 8, Thymoma, cycle 1 150 mg continuous, cycle 2 and beyond 100 mg continuous, not confirmed): PR, not confirmed. | patients showing complete response (among the 50 patients): 1 patient | patients showing partial response (among the 50 patients): 7 patients | partial responses confirmed by a repeat assessment four weeks later (of the seven patients with partial response): four
